This passage reports IC50 and Kd results from ChEMBL document CHEMBL4425089, “Chemical Space of DNA-Encoded Libraries” (J Med Chem, 2016).

The target of one experiment is T1, Protein phosphatase 1D (Homo sapiens, UniProt O15297).
T1 sequence (O15297 whole entry): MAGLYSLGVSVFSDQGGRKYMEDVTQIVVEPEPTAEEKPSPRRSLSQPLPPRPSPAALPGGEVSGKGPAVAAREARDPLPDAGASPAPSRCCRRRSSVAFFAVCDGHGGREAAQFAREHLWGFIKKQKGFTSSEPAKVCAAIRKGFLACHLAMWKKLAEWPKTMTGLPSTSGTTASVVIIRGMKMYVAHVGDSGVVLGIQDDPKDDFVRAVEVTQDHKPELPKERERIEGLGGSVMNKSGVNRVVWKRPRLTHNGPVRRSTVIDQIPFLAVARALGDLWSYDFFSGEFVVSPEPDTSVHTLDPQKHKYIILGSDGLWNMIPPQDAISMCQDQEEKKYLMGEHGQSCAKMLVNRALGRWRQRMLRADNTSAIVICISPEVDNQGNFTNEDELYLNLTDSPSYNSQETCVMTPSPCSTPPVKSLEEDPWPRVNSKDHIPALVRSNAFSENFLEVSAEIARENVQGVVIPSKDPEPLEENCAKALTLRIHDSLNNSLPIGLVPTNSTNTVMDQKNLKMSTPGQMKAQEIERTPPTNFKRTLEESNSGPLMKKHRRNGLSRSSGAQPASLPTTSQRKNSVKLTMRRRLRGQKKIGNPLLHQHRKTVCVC
Briefly: Inhibition of human Wip1 (2 to 420 residues) expressed in baculovirus-infected insect SF9 cells assessed as fluorescein diphosphate hydrolysis after 5 mins by fluorescence assay.

The next experiment addresses MAP kinase p38 (Homo sapiens, UniProt O15264+Q15759+Q16539+P53778). Briefly: Inhibition of p38 MAPK (unknown origin). Format: protein assay.
The target in experiment [1] is Proto-oncogene tyrosine-protein kinase Src (Gallus gallus, UniProt P00523). Briefly: Inhibition of chicken Src kinase domain using AEEEIYGEFAKKK as substrate by continuous spectrophotometric assay.
Experiment [2] is described as follows: Displacement of [3H]-3-(1-(3-chloro-6-isopropyl-8-(trifluoromethyl)imidazo[1,2-a]pyridine-2-carbonyl)piperidin-4-yl)oxazolidin-2-one from HCV genotype 1b C-terminal His6-tagged NS4B (1 to 261 residues) expressed in baculovirus infected insect SF9 cells. Further details: species or system Hepatitis C virus subtype 1b. On the technique in general: In a radioligand displacement assay an active substance lowers the binding of a labelled ligand.

For the next experiment, the target named is Interleukin-2 (Homo sapiens, UniProt P60568). Briefly: Binding affinity to human IL-2 measured over 30 mins by fluorescence polarization assay. (Polarisation of emitted light reports the rotation of a fluorescent probe.)
Experiment [3] in a line: Binding affinity to HSP70 (unknown origin) by surface plasmon resonance method. Further details: species or system Homo sapiens.
For experiment [4], the target named is T2, 2',5'-phosphodiesterase 12 (Homo sapiens, UniProt Q6L8Q7).
T2 sequence (Q6L8Q7 whole entry): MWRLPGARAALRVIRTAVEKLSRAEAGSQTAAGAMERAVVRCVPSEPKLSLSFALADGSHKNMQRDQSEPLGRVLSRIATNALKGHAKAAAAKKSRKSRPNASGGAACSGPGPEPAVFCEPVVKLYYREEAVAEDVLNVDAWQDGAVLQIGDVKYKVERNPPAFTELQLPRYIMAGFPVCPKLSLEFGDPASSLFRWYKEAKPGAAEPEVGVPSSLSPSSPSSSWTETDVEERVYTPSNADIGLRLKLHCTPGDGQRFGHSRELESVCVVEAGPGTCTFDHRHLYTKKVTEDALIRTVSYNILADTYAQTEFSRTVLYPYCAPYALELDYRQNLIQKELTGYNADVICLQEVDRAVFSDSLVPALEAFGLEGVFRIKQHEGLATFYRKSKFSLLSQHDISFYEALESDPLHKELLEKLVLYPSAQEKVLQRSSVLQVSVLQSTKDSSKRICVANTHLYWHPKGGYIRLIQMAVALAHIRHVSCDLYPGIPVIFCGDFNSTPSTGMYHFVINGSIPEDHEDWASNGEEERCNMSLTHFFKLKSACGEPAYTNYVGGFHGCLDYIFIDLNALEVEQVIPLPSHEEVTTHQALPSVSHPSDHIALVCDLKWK
Briefly: Inhibition of human PDE12 (17 to 609 residues) expresssed in Escherichia coli BL21(DE3) cells using 2-5A as substrate assessed as AMP monomers and ATP formation after 30 mins by AMP-Glo assay.

Experiment [5] is described as follows: Binding affinity to human plasma AGP by isothermal titration calorimetry. Format: ADME. A general note: Isothermal titration calorimetry measures the heat released or taken up as one component is titrated into another.

The structures appear in SMILES notation. pIC50, pKd: −log10 of the molar value.

Interleukin-2, sequence (P60568 whole entry): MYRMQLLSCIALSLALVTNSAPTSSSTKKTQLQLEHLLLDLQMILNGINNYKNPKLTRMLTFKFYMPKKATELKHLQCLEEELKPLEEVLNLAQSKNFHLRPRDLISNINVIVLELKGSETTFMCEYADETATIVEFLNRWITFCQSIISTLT

As usually defined, the pIC50 is −log10 of the IC50, conventionally taken in molar units. For the compound `Cc1ncc(Cl)cc1NCc1ccc(C(=O)N[C@@H](CC2CCCC2)C(=O)NC2CC2)s1`, the pIC50 on Protein phosphatase 1D is 8.22.
The term IC50 denotes the concentration needed to halve the response being measured. Read a high IC50 as a need for much substance. `CNC(=O)C(Cc1ccc2c(c1)COC(C)(C)O2)Nc1nc(O)nc(-n2ccc3ccc(C(=O)N4CCCc5ccccc54)cc32)n1` (stereo not drawn): the IC50 at MAP kinase p38 is listed as 7 nM. This lies in the single-digit nanomolar range.
Take `O=C1/C=C\C(=O)N[C@@H](CC2CCCCC2)C(=O)N[C@@H](Cc2ccccc2)C(=O)N[C@@H](CCCNC(=O)c2cnccn2)C(=O)NCC[C@@H](C(=O)O)N1`: in experiment [1], the pIC50 is 8.40.
In experiment [2], `O=C(c1ccc2[nH]ccc2c1)N1CCC2(CCCN(c3ncc(-c4ccccc4)c(-c4ccc(Cl)cc4)n3)C2)CC1` had a pIC50 of 7.38.
The pKd is the negative decadic logarithm of the Kd, by convention in mol/L. Read a low pKd as a large Kd. On to `CCCC#Cc1ccc(C[C@@H](NC(=O)CCn2c(C)cc3ccccc32)C(=O)O)cc1`, for which the pKd at Interleukin-2 was 5.38.
As for `NC(=O)C(CNC(=O)c1ccc2[nH]nc(Br)c2c1)NC(=O)c1cccc(NC(=O)CCC(=O)c2ccc(-c3ccccc3)cc2)c1` (stereo not drawn), the pKd in experiment [3] is 9.19.
Turning to `CCn1cc(-c2nc3cc(Br)c(C(=O)N4CCO[C@@H](c5ccc(F)cc5)[C@@H]4CO)cc3n2C)c2ccc(C#N)cc21`, the pIC50 in experiment [4] was 9.10.
For the compound `Cc1ccc(S(=O)(=O)N(CC(=O)NCCOCCC(=O)NCCOCCC(=O)N[C@@H](CCCCNC(=O)/C=C/c2ccc(-c3ccccc3C(F)(F)F)o2)C(=O)O)c2ccccc2-c2ccccc2)cc1`, the pKd in experiment [5] was 5.24.
